Here are results for one molecule from patent publication US11992468B2, “Abuse-deterrent dosage forms containing esketamine” (Clexio Biosciences Ltd., priority 2019, dated 2024).

Each structure is given as a SMILES string. Counter-ions that a name gives are not always drawn.

The series is described as follows: Simulated in vitro nasal diffusion/release (vertical diffusion cell). Conditions: pH 6.4.

In turn, `CN[C@]1(c2ccccc2Cl)CCCCC1=O` [Esketamine HCl powder, esketamine hydrochloride] showed a recovery at 10 min of 45.1%, a recovery at 30 min of 75.9% and a recovery at 60 min of 79.2%.
